This note sets out measurements from ChEMBL document CHEMBL1139949, “Structure-activity relationship, kinetic mechanism, and selectivity for a new class of ubiquitin C-terminal hydrolase-L1 (UCH-L1) inhibitors” (Bioorg Med Chem Lett, 2007).

Calls of active or inactive are those of the source. No cut-off for these calls is given here.

Series [1] deals with T1, Papain (Carica papaya) (UniProt P00784).
T1 sequence (whole entry): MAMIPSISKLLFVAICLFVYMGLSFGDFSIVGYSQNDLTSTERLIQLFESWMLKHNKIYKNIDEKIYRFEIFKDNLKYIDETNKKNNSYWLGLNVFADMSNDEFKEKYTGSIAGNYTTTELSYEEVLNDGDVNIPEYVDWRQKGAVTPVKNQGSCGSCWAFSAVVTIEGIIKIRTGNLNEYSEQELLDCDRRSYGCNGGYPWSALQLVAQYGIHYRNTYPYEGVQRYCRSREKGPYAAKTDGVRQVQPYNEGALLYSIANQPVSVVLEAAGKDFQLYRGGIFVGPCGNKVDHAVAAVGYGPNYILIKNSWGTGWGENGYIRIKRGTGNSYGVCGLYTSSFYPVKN
As to the kind of experiment: Inhibition of papain at 40 uM.

Series [2] concerns the target T2, Ubiquitin carboxyl-terminal hydrolase isozyme L3 (Homo sapiens) (UniProt P15374).
T2 sequence (whole entry): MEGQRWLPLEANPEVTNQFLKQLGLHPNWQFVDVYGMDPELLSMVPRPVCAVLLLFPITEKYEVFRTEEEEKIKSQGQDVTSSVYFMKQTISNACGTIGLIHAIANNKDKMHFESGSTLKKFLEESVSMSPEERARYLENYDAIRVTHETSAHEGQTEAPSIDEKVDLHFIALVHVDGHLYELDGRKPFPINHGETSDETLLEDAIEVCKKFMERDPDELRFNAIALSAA
As to the kind of experiment: Inhibition of UCHL3 at 20 uM.

Series [3] addresses T3, Ubiquitin carboxyl-terminal hydrolase 5 (Homo sapiens) (UniProt P45974).
T3 sequence (whole entry): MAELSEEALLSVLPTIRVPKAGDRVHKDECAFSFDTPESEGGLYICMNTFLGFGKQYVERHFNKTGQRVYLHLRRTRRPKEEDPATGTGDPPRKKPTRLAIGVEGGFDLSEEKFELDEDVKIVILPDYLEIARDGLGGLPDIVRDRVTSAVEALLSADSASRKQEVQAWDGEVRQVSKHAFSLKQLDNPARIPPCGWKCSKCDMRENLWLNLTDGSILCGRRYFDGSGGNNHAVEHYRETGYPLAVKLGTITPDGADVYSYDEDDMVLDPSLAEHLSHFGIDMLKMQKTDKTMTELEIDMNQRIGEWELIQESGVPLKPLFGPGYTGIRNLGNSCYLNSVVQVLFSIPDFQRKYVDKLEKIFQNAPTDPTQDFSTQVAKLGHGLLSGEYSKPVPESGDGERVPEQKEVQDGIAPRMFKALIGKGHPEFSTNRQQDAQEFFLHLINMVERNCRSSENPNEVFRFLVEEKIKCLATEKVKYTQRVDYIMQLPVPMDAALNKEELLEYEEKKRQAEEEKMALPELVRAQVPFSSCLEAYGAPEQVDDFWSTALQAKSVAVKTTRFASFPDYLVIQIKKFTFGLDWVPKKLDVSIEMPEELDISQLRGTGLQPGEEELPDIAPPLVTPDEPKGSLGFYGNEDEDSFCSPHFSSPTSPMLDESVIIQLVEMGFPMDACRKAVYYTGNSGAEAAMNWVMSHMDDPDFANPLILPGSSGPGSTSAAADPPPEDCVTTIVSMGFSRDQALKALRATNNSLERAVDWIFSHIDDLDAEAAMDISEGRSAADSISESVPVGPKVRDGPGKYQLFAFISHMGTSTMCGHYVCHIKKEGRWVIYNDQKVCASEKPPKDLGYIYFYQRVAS
As to the kind of experiment: Inhibition of isopeptidase T at 40 uM.

In series [4] the target is T4, Protein-glutamine gamma-glutamyltransferase (Homo sapiens) (UniProt P21980).
T4 sequence (whole entry): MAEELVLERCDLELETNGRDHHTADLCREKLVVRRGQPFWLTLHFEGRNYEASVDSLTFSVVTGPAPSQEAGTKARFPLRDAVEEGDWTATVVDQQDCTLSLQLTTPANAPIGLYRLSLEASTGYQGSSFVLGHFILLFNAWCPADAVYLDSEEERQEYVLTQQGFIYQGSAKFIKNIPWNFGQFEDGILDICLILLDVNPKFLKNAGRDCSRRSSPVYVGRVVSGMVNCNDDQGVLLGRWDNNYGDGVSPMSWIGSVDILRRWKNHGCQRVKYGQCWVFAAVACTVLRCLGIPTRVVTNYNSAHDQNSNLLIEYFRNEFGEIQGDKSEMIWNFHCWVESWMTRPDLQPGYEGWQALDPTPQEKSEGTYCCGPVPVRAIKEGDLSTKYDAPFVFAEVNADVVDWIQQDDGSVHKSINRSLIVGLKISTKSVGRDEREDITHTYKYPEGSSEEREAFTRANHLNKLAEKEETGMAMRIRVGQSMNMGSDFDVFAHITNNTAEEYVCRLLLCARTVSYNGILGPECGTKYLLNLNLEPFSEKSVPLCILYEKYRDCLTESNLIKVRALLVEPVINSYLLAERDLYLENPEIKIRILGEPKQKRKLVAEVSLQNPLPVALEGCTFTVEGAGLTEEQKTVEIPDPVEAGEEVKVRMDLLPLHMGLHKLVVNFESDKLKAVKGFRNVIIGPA
As to the kind of experiment: Inhibition of TGase 2 at 40 uM.

In series [5] the target is T5, Caspase-3 (Homo sapiens) (UniProt P42574).
T5 sequence (whole entry): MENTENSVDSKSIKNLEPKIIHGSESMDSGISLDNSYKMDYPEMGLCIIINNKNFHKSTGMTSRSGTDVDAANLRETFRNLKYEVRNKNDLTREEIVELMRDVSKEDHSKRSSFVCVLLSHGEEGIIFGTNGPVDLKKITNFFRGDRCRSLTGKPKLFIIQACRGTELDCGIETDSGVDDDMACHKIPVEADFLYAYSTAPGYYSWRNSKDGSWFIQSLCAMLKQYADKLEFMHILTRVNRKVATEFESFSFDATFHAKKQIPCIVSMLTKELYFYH
As to the kind of experiment: Inhibition of caspase 3 at 40 uM.

The subject of series [6] is N2a. As to the kind of experiment: Cytotoxicity against serum-starved mouse N2A cells at 0.1 mM. The series is classed as cell-based. To be noted: 100 µM.

For `Nc1c(C(=O)c2ccc(Cl)cc2)sc2[nH]c(=O)c(C(=O)O)cc12`, the outcome in series [1] was inactive.
`Cc1ccc(C(=O)c2sc3[nH]c(=O)c(C(=O)O)cc3c2N)cc1` gave an inhibition in series [2] of 30%. The outcome in series [1] and in series [3] was inactive.
Turning to `Cl.Nc1c(C(=O)c2ccccc2)sc2[nH]c(=O)c(C(=O)O)cc12`, the outcome in series [2], in series [4], in series [1] and in series [5] was inactive. In series [6], the Activity entry is on record as “Non-toxic”.

As usually defined, the inhibition is the change of the read-out against control, counted positive when it falls. Lower therefore signals a response near the control.
